Laboratory results taken from patent US20070244165A1, “Method for Identifying and Producing Effectors of Calmodulin-Dependent Peptidyl-Prolyl Cis/Trans Isomers” (MAX-PLANK-GESELLSCHAFT ZUR FORDERUNG, priority 2004, published 2007).

Target: T1, human CaMAP FKBP38 (Homo sapiens, UniProt Q14318)
T1 construct: made in house; host or cells: E. coli Rosetta cells (pET28a)
Test: Inhibition of PPIase activity of calmodulin-activated CaMAP FKBP38 (isomer-specific proteolysis with chymotrypsin)
Type: biochemical
Details: 0.5 μM FKBP38, 0.5 μM calmodulin, 5 mM calcium chloride; substrate Suc-Ala-Phe-Pro-Phe-NHNp; read-out: IC50 value (inhibitor concentration against detected enzyme activity)
Experimental: The human CaMAP FKBP38 (synonyms: FKBP8_HUMAN; Swiss-Prot-No.: Q14318) was produced molecular-biologically, as described in Example 9, and stored in aliquots of 100 μl with a protein concentration of 0.83 mg/ml at −80° C. Just before measuring the activity, one of these aliquots was thawed and subsequently stored at 4° C. Furthermore, commercially available calmodulin isolated from bovine brain (Sigma; purchase order no.: P2277), which had been stored at −80° C., was thawed just before measuring the activity and stored at 4° C. Suc-Ala-Phe-Pro-Phe-pNA (Bachem; purchase order no.: L-1400) was used as CaMAP substrate. Alpha-chymotrypsin isolated from bovine pancreas (Merck KG; purchase order no.: 102307) was used as isomer specific auxiliary enzyme. The following working solutions were prepared just before measuring and stored at 4° C.: • solution A: 55 mM HEPES buffer, pH 7.8; 1 mM DTT, 0.5% glycerol • solution B: 20 mg of the peptide substrate dissolved in 1 ml DMSO • solution C: 20 mg chymotrypsin dissolved in 200 μl of solution A • solution D: FKBP38 ([…], diluted in solution A) • solution E: calmodulin (300 μM, diluted in solution A) • solution F: calcium chloride (1 M in solution A)
For the kinetic determination of CaMAP activity, a computer assisted diode-array spectrometer (Hewlett Packard) with a cuvette temperature of 4° C. is used. […]

- IC50: ~4.3 µM
SMILES: C=CC[C@@H]1/C=C(\C)C[C@H](C)C[C@H](OC)[C@H]2O[C@@](O)(C(=O)C(=O)N3CCCC[C@H]3C(=O)O[C@H](/C(C)=C/[C@@H]3CC[C@@H](O)[C@H](OC)C3)[C@H](C)[C@@H](O)CC1=O)[C@H](C)C[C@@H]2OC [FK506]
